Results from ChEMBL document CHEMBL5104193, “Hypoxia-Activated Prodrugs with Dual COX-2/CA Inhibitory Effects on Attenuating Cardiac Inflammation under Hypoxia” (J Med Chem, 2022).
Active and inactive are the calls of the source. The calls are words filed in the database; no cut-off is given here.

What was measured:
[1] = system: H9c2; assay: Protection against LPS induced cell injury in rat H9c2 cells assessed as increase in cell viability under hypoxic condition at 0.001 to 10 uM by CCK-8 assay; assay type: functional, cell-based; conditions: dose 0.001-10 µM
[2] = system: Rattus norvegicus; assay: Antiinflammatory activity against LPS/talc powder induced pericarditic Wistar rat assessed as elimination of pericardial effusion at 20 mg/kg, ip pretreated for 2 hrs followed by LPS/tal powder stimulation measured after 48 hrs; assay type: functional, organism-based; conditions: time 50.0 hrs
[3] = system: Rattus norvegicus; assay: Antiinflammatory activity in LPS/talc powder induced pericarditic Wistar rat assessed as increase in CK-MB level in serum at 20 mg/kg, ip pretreated for 2 hrs followed by LPS/tal powder stimulation measured after 48 hrs (reference value: 4140+/-256.23 U/L); assay type: functional; conditions: time 50 hrs
[4] = system: H9c2; assay: Anti-inflammatory activity in rat H9c2 cells assessed as inhibition of endogenous IL-6 protein expression by DAPI staining based immunofluorescence analysis; assay type: functional, cell-based
[5] = system: H9c2; assay: Reversal of LPS/hypoxia induced mitochondrial membrane potential loss in rat H9c2 cells by JC-1 dye based flow cytometry analysis; assay type: functional, cell-based
[6] = system: Rattus norvegicus; assay: Antiinflammatory activity against LPS/talc powder induced pericarditic Wistar rat assessed as restoration of heart rate at 20 mg/kg, ip pretreated for 2 hrs followed by LPS/tal powder stimulation measured after 48 hrs by ECG analysis; assay type: functional, organism-based; conditions: time 50.0 hrs
[7] = system: H9c2; assay: Anti-inflammatory activity in LPS/hypoxia induced rat H9c2 cells assessed as increase in VEGF expression at 10 uM by Western blot analysis; assay type: functional, cell-based
[8] = system: NTR; assay: Stability of the compound assessed as NTR (unknown origin) mediated hydrolysis by measuring half life by UV spectrophotometry; assay type: ADME; conditions: human, NTR enzyme
[9] = system: Rattus norvegicus; assay: Antiinflammatory activity against LPS/talc powder induced pericarditic Wistar rat assessed as improvement in low voltage of R wave at 20 mg/kg, ip pretreated for 2 hrs followed by LPS/tal powder stimulation measured after 48 hrs by ECG analysis; assay type: functional, organism-based; conditions: time 50.0 hrs
[10] = system: Rattus norvegicus; assay: Antiinflammatory activity in LPS/talc powder induced pericarditic Wistar rat model assessed as decrease in pericardium thickness at 20 mg/kg, ip pretreated for 2 hrs followed by LPS/tal powder stimulation measured after 48 hrs by H and E staining based analysis; assay type: functional, organism-based; conditions: time 50.0 hrs
[11] = system: Rattus norvegicus; assay: Antiinflammatory activity in LPS/talc powder induced pericarditic Wistar rat model assessed as increase in VEGF level at 20 mg/kg, ip pretreated for 2 hrs followed by LPS/tal powder stimulation measured after 48 hrs by Western blot analysis; assay type: functional, organism-based; conditions: time 50.0 hrs
[12] = system: Rattus norvegicus; assay: Antiinflammatory activity in LPS/talc powder induced pericarditic Wistar rat model assessed as reduction in cell edema at 20 mg/kg, ip pretreated for 2 hrs followed by LPS/tal powder stimulation measured after 48 hrs by H and E staining based analysis; assay type: functional, organism-based; conditions: time 50.0 hrs
[13] = system: H9c2; assay: Anti-inflammatory activity in LPS/hypoxia induced rat H9c2 cells assessed as reduction of IL-1 beta protein expression at 10 uM by Western blot analysis; assay type: functional, cell-based
[14] = system: H9c2; assay: Anti-inflammatory activity in LPS/hypoxia induced rat H9c2 cells assessed as reduction of TNF-alpha protein expression at 10 uM by Western blot analysis; assay type: functional, cell-based
[15] = system: H9c2; assay: Inhibition of intracellular ROS level in LPS/hypoxia induced rat H9c2 cells by DCFH-DA probe based fluorescence confocal microscopy analysis; assay type: functional, cell-based
[16] = system: H9c2; assay: Protection against LPS/ hypoxia induced cell injury in rat H9c2 cells assessed as recovery of cell viability at 0.001 to 10 uM by CCK-8 assay; assay type: functional, cell-based; conditions: dose 0.001-10 µM
[17] = system: H9c2; assay: Protection against LPS/hypoxia induced cell injury in rat H9c2 cells assessed as recovery of cell viability by CCK-8 assay (reference value: 69.0%); assay type: functional
[18] = system: Rattus norvegicus; assay: Antiinflammatory activity in LPS/talc powder induced pericarditic Wistar rat model assessed as suppression of TNF-alpha overexpression in heart at 20 mg/kg, ip pretreated for 2 hrs followed by LPS/tal powder stimulation measured after 48 hrs by IHC analysis; assay type: functional, organism-based; conditions: time 50.0 hrs
[19] = system: Rattus norvegicus; assay: Antiinflammatory activity against LPS/talc powder induced pericarditic Wistar rat assessed as reduction in infarct size at 20 mg/kg, ip pretreated for 2 hrs followed by LPS/tal powder stimulation measured after 48 hrs by TTC staining based assay; assay type: functional, organism-based; conditions: time 50.0 hrs
[20] = system: H9c2; assay: Reversal of ATP level in LPS/hypoxia induced rat H9c2 cells by multimode plate reader analysis; assay type: functional, cell-based
[21] = system: H9c2; assay: Inhibition of Carbonic anhydrase in LPS/hypoxia induced rat H9c2 cells using p-nitrophenyl acetate as substrate by microplate reader method; assay type: cell-based
[22] = system: Rattus norvegicus; assay: Antiinflammatory activity against LPS/talc powder induced pericarditic Wistar rat assessed as reduction in heart swelling at 20 mg/kg, ip pretreated for 2 hrs followed by LPS/tal powder stimulation measured after 48 hrs; assay type: functional, organism-based; conditions: time 50.0 hrs
[23] = system: H9c2; assay: Anti-inflammatory activity in LPS/hypoxia induced rat H9c2 cells assessed as reduction of IL-6 protein expression at 10 uM by Western blot analysis; assay type: functional, cell-based
[24] = system: H9c2; assay: Inhibition of intracellular ROS level in LPS/hypoxia induced rat H9c2 cells in presence of Na2WO4 by DCFH-DA probe based fluorescence confocal microscopy analysis; assay type: functional, cell-based
[25] = system: H9c2; assay: Reversal of LPS/hypoxia induced mitochondrial membrane potential loss in rat H9c2 cells assessed as increase in JC-1 polymer morphology by JC-1 dye based flow cytometry analysis; assay type: functional, cell-based; conditions: time 20.0 min
[26] = system: H9c2; assay: Protection against LPS/hypoxia induced apoptosis in rat H9c2 cells assessed as reduction in necrotic cells at 10 umol/L incubated for 4 hrs under hypoxia condition by AnnexinV-FITC/propidium iodide staining based flow cytometry analysis (reference value: 31.02%); assay type: functional; set-up: scale not given: the % may be the effect or the level left; conditions: dose 10 µmol/L, at 10 µM
[27] = system: Rattus norvegicus; assay: Antiinflammatory activity in LPS/talc powder induced pericarditic Wistar rat assessed as increase in cTNI level in serum at 20 mg/kg, ip pretreated for 2 hrs followed by LPS/tal powder stimulation measured after 48 hrs (reference value: 0.167+/-0.025 ng/ml); assay type: functional; conditions: time 50 hrs
[28] = system: Rattus norvegicus; assay: Antiinflammatory activity in LPS/talc powder induced pericarditic Wistar rat assessed as decrease in TNF-alpha level at 20 mg/kg, ip pretreated for 2 hrs followed by LPS/tal powder stimulation measured after 48 hrs by Western blot analysis; assay type: functional, organism-based; conditions: time 50.0 hrs
[29] = system: Rattus norvegicus; assay: Antiinflammatory activity in LPS/talc powder induced pericarditic Wistar rat model assessed as reduction in cyt-c expression at 20 mg/kg, ip pretreated for 2 hrs followed by LPS/tal powder stimulation measured after 48 hrs by Western blot analysis; assay type: functional, organism-based; conditions: time 50.0 hrs
[30] = system: H9c2; assay: Anti-inflammatory activity in rat H9c2 cells assessed as downregulation of cytochrome C expression at 10 uM by Western blot analysis; assay type: functional, cell-based

Structure (SMILES): COc1ccc2cc([C@H](C)C(=O)OCc3cc(C)cc(COC(=O)NCCc4ccc(S(N)(=O)=O)cc4)c3OCc3ccc([N+](=O)[O-])cc3)ccc2c1
- Activity [1]: Active

Structure (SMILES): COc1ccc2c(c1)c(CC(=O)OCc1cc(C)cc(COC(=O)Cn3cc(CCCCC(=O)Nc4nnc(S(N)(=O)=O)s4)nn3)c1OCc1ccc([N+](=O)[O-])cc1)c(C)n2C(=O)c1ccc(Cl)cc1
- Activity [2]: Active
- Activity [3]: 1895 U/L
- Activity [4]: Active
- Activity [5]: Active
- Activity [6]: Active
- Activity [1]: Active
- Activity [7]: Active
- half-life [8]: 2.8 min
- Activity [9]: Active
- Activity [10]: Active
- Activity [11]: Active
- Activity [12]: Active
- Activity [13]: Active
- Activity [14]: Active
- inhibition [15]: Active
- Activity [16]: Active
- Activity [17]: 94.9%
- Activity [18]: Active
- Activity [19]: Active
- Activity [20]: Active
- inhibition [21]: Active
- Activity [22]: Active
- Activity [23]: Active
- inhibition [24]: Active
- Activity [25]: Active
- Activity [26]: 8.58%
- Activity [27]: 0.104 ng/mL
- Activity [28]: Active
- Activity [29]: Active
- Activity [30]: Active
